Patent publication US6916812B2, “Alpha-aminoamide derivatives as melanocortin agonists” (Bristol-Myers Squibb Company, priority 2001, dated 2005)

Target: T1, cloned human MC4R (Homo sapiens, UniProt P32245)
T1 construct: made in house; host or cells: Hi5 insect cells (baculovirus infection); membrane preparation
Experiment: Membrane binding assay: competitive inhibition of [125I]NDP-α-MSH binding
Conditions: for inhibition at 10 µM / Displacement Rate (%) (at 10 μM): [125I]NDP-α-MSH displacement; for inhibition at 10 µM: read-out: Displacement Rate (%) (at 10 μM); for IC50: read-out: MC4R IC50

T1 sequence (P32245 whole entry): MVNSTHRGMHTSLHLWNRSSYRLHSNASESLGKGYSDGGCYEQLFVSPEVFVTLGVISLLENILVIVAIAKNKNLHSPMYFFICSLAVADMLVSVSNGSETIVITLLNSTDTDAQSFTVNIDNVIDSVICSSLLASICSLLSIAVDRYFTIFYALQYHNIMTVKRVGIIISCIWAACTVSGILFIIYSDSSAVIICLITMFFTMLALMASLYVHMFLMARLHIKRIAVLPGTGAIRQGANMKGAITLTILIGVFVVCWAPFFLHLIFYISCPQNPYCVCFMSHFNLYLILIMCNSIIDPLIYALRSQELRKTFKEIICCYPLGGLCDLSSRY

Row | inhibition at 10 µM [%] | IC50 [µM] | Displacement Rate (%) (at 10 μM) | Structure (SMILES)
1 | 35 to 70 | 1.5 to 3 | – | COc1cc(CN2CCN(C(=O)[C@@H](N)Cc3ccc(OCc4ccccc4)cc3)CC2)ccc1OCc1ccc([N+](=O)[O-])cc1 [Example 150]
2 | 35 to 70 | > 3 | – | N[C@@H](Cc1ccc(OCc2ccccc2)cc1)C(=O)N1CCN(Cc2ccco2)CC1 [Example 151]
3 | 35 to 70 | > 3 | – | N[C@@H](Cc1ccc(OCc2ccccc2)cc1)C(=O)N1CCN(Cc2cccc([N+](=O)[O-])c2)CC1 [Example 152]
4 | 35 to 70 | > 3 | – | N[C@@H](Cc1ccc(OCc2ccccc2)cc1)C(=O)N1CCN(Cc2ccc(F)cc2F)CC1 [Example 153]
5 | 35 to 70 | > 3 | – | N[C@@H](Cc1ccc(OCc2ccccc2)cc1)C(=O)N1CCN(Cc2cc3c(cc2[N+](=O)[O-])OCO3)CC1 [Example 154]
6 | 35 to 70 | > 3 | – | N[C@@H](Cc1ccc(OCc2ccccc2)cc1)C(=O)N1CCN(C2CCN(Cc3ccccc3)CC2)CC1 [Example 155]
7 | 35 to 70 | > 3 | – | N[C@@H](Cc1ccc(OCc2ccccc2)cc1)C(=O)N1CCN(Cc2ccc3c(c2)OCCO3)CC1 [Example 156]
8 | 35 to 70 | > 3 | – | CC(c1ccccc1)N1CCN(C(=O)[C@@H](N)Cc2ccc(OCc3ccccc3)cc2)CC1 (some centres unmarked) [Example 157]
9 | 35 to 70 | > 3 | – | N[C@@H](Cc1ccc(OCc2ccccc2)cc1)C(=O)N1CCN(C2CCCC2)CC1 [Example 158]
10 | – | < 1.5 | – | CN[C@@H](Cc1ccc(OCc2ccccc2)cc1)C(=O)N1CCN(Cc2cccc(Cl)c2Cl)CC1 [Example 165]
11 | 91 to 100 | < 1.5 | – | CCN[C@@H](Cc1ccc(OCc2ccccc2)cc1)C(=O)N1CCN(Cc2cccc(Cl)c2Cl)CC1 [Example 166]
12 | 91 to 100 | < 1.5 | – | CCCN[C@@H](Cc1ccc(OCc2ccccc2)cc1)C(=O)N1CCN(Cc2cccc(Cl)c2Cl)CC1 [Example 167]
13 | 71 to 90 | < 1.5 | – | CC(C)N[C@@H](Cc1ccc(OCc2ccccc2)cc1)C(=O)N1CCN(Cc2cccc(Cl)c2Cl)CC1 [Example 168]
14 | 91 to 100 | < 1.5 | – | CCCCN[C@@H](Cc1ccc(OCc2ccccc2)cc1)C(=O)N1CCN(Cc2cccc(Cl)c2Cl)CC1 [Example 169]
15 | 71 to 90 | > 3 | – | O=C([C@H](Cc1ccc(OCc2ccccc2)cc1)NCc1ccccc1)N1CCN(Cc2cccc(Cl)c2Cl)CC1 [Example 170]
16 | 71 to 90 | > 3 | – | O=C([C@H](Cc1ccc(OCc2ccccc2)cc1)NCCc1ccccc1)N1CCN(Cc2cccc(Cl)c2Cl)CC1 [Example 171]
17 | 71 to 90 | 1.5 to 3 | – | O=C([C@H](Cc1ccc(OCc2ccccc2)cc1)NCCN1CCOCC1)N1CCN(Cc2cccc(Cl)c2Cl)CC1 [Example 172]
18 | 91 to 100 | < 1.5 | – | O=C([C@H](Cc1ccc(OCc2ccccc2)cc1)NCCCN1CCOCC1)N1CCN(Cc2cccc(Cl)c2Cl)CC1 [Example 173]
19 | 91 to 100 | < 1.5 | – | CN(C)CCCN[C@@H](Cc1ccc(OCc2ccccc2)cc1)C(=O)N1CCN(Cc2cccc(Cl)c2Cl)CC1 [Example 174]
20 | 91 to 100 | < 1.5 | – | CN(C)CCN[C@@H](Cc1ccc(OCc2ccccc2)cc1)C(=O)N1CCN(Cc2cccc(Cl)c2Cl)CC1 [Example 175]
21 | 91 to 100 | < 1.5 | – | O=C([C@H](Cc1ccc(OCc2ccccc2)cc1)NCCN1CCCCC1)N1CCN(Cc2cccc(Cl)c2Cl)CC1 [Example 176]
22 | – | < 1.5 | +++ (+++ = 91-100) | N[C@@H](Cc1ccc(OCc2ccccc2)cc1)C(=O)N1CCN(Cc2cccc(Cl)c2Cl)CC1 [Example 178]
23 | – | < 1.5 | +++ (+++ = 91-100) | N[C@@H](Cc1ccc(OCc2ccccc2Br)cc1)C(=O)N1CCN(Cc2cccc(Cl)c2Cl)CC1 [Example 179]
24 | – | < 1.5 | +++ (+++ = 91-100) | N[C@@H](Cc1ccc(OCc2cccc(F)c2)cc1)C(=O)N1CCN(Cc2cccc(Cl)c2Cl)CC1 [Example 180]
25 | – | < 1.5 | +++ (+++ = 91-100) | N[C@@H](Cc1ccc(OCc2ccc(C(F)(F)F)cc2)cc1)C(=O)N1CCN(Cc2cccc(Cl)c2Cl)CC1 [Example 181]
26 | – | < 1.5 | +++ (+++ = 91-100) | N[C@@H](Cc1ccc(OCc2ccccc2C(F)(F)F)cc1)C(=O)N1CCN(Cc2cccc(Cl)c2Cl)CC1 [Example 182]
27 | – | < 1.5 | +++ (+++ = 91-100) | N[C@@H](Cc1ccc(OCc2ccc(Cl)cc2)cc1)C(=O)N1CCN(Cc2cccc(Cl)c2Cl)CC1 [Example 183]

Row | inhibition at 10 µM [%] | IC50 [µM] | Displacement Rate (%) (at 10 μM) | Structure (SMILES)
28 | – | < 1.5 | +++ (+++ = 91-100) | CCCCc1ccc(COc2ccc(C[C@H](N)C(=O)N3CCN(Cc4cccc(Cl)c4Cl)CC3)cc2)cc1 [Example 184]
29 | – | < 1.5 | +++ (+++ = 91-100) | N[C@@H](Cc1ccc(OCc2c(F)c(F)c(F)c(F)c2F)cc1)C(=O)N1CCN(Cc2cccc(Cl)c2Cl)CC1 [Example 185]
30 | – | < 1.5 | +++ (+++ = 91-100) | N[C@@H](Cc1ccc(OCc2ccc(Br)cc2)cc1)C(=O)N1CCN(Cc2cccc(Cl)c2Cl)CC1 [Example 186]
31 | – | 1.5 to 3 | +++ (+++ = 91-100) | N[C@@H](Cc1ccc(OCc2cccc(C(F)(F)F)c2)cc1)C(=O)N1CCN(Cc2cccc(Cl)c2Cl)CC1 [Example 187]
32 | – | < 1.5 | +++ (+++ = 91-100) | N[C@@H](Cc1ccc(OCc2ccc(F)cc2)cc1)C(=O)N1CCN(Cc2cccc(Cl)c2Cl)CC1 [Example 188]
33 | – | < 1.5 | +++ (+++ = 91-100) | N[C@@H](Cc1ccc(OCc2cc(Cl)cc(Cl)c2)cc1)C(=O)N1CCN(Cc2cccc(Cl)c2Cl)CC1 [Example 189]
34 | – | 1.5 to 3 | +++ (+++ = 91-100) | Cc1cc(C)cc(COc2ccc(C[C@H](N)C(=O)N3CCN(Cc4cccc(Cl)c4Cl)CC3)cc2)c1 [Example 190]
35 | – | < 1.5 | +++ (+++ = 91-100) | Cc1ccc(COc2ccc(C[C@H](N)C(=O)N3CCN(Cc4cccc(Cl)c4Cl)CC3)cc2)cc1C [Example 191]
36 | – | < 1.5 | +++ (+++ = 91-100) | Cc1ccc(COc2ccc(C[C@H](N)C(=O)N3CCN(Cc4cccc(Cl)c4Cl)CC3)cc2)cc1 [Example 192]
37 | – | < 1.5 | +++ (+++ = 91-100) | N[C@@H](Cc1ccc(OCc2cccc(Oc3ccccc3)c2)cc1)C(=O)N1CCN(Cc2cccc(Cl)c2Cl)CC1 [Example 193]
38 | – | 1.5 to 3 | +++ (+++ = 91-100) | COc1cc(COc2ccc(C[C@H](N)C(=O)N3CCN(Cc4cccc(Cl)c4Cl)CC3)cc2)cc(OC)c1 [Example 194]
39 | – | < 1.5 | +++ (+++ = 91-100) | CC(C)c1ccc(COc2ccc(C[C@H](N)C(=O)N3CCN(Cc4cccc(Cl)c4Cl)CC3)cc2)cc1 [Example 195]
40 | – | < 1.5 | +++ (+++ = 91-100) | N[C@@H](Cc1ccc(OCc2ccc(F)cc2F)cc1)C(=O)N1CCN(Cc2cccc(Cl)c2Cl)CC1 [Example 196]
41 | – | < 1.5 | +++ (+++ = 91-100) | N[C@@H](Cc1ccc(OCc2cccc(Br)c2)cc1)C(=O)N1CCN(Cc2cccc(Cl)c2Cl)CC1 [Example 197]
42 | – | < 1.5 | +++ (+++ = 91-100) | N[C@@H](Cc1ccc(OCc2ccc(-c3ccccc3)cc2)cc1)C(=O)N1CCN(Cc2cccc(Cl)c2Cl)CC1 [Example 198]
43 | – | 1.5 to 3 | +++ (+++ = 91-100) | N[C@@H](Cc1ccc(OCc2cc(C(F)(F)F)cc(C(F)(F)F)c2)cc1)C(=O)N1CCN(Cc2cccc(Cl)c2Cl)CC1 [Example 199]
44 | – | < 1.5 | +++ (+++ = 91-100) | N[C@@H](Cc1ccc(OCc2ccc(Cl)cc2Cl)cc1)C(=O)N1CCN(Cc2cccc(Cl)c2Cl)CC1 [Example 200]
45 | – | < 1.5 | +++ (+++ = 91-100) | CC(C)(C)c1ccc(COc2ccc(C[C@H](N)C(=O)N3CCN(Cc4cccc(Cl)c4Cl)CC3)cc2)cc1 [Example 201]
46 | – | 1.5 to 3 | +++ (+++ = 91-100) | Cc1ccc(C)c(COc2ccc(C[C@H](N)C(=O)N3CCN(Cc4cccc(Cl)c4Cl)CC3)cc2)c1 [Example 202]
47 | – | 1.5 to 3 | +++ (+++ = 91-100) | COc1cccc(COc2ccc(C[C@H](N)C(=O)N3CCN(Cc4cccc(Cl)c4Cl)CC3)cc2)c1 [Example 203]
48 | – | < 1.5 | +++ (+++ = 91-100) | N[C@@H](Cc1ccc(OCc2ccc(Cl)c(Cl)c2)cc1)C(=O)N1CCN(Cc2cccc(Cl)c2Cl)CC1 [Example 204]
49 | – | 1.5 to 3 | +++ (+++ = 91-100) | N[C@@H](Cc1ccc(OCc2c(F)cccc2F)cc1)C(=O)N1CCN(Cc2cccc(Cl)c2Cl)CC1 [Example 205]
50 | – | < 1.5 | +++ (+++ = 91-100) | N[C@@H](Cc1ccc(OCc2cccc(OCc3ccccc3)c2)cc1)C(=O)N1CCN(Cc2cccc(Cl)c2Cl)CC1 [Example 206]
51 | – | 1.5 to 3 | +++ (+++ = 91-100) | N[C@@H](Cc1ccc(OCc2ccc(OCc3ccccc3)cc2)cc1)C(=O)N1CCN(Cc2cccc(Cl)c2Cl)CC1 [Example 208]
52 | 91 to 100 | 1.5 to 3 | – | CCOc1ccc(COc2ccc(C[C@H](N)C(=O)N3CCN(Cc4cccc(Cl)c4Cl)CC3)cc2)cc1 [Example 209]
53 | – | 1.5 to 3 | +++ (+++ = 91-100) | N[C@@H](Cc1ccc(OCc2ccccc2Cl)cc1)C(=O)N1CCN(Cc2cccc(Cl)c2Cl)CC1 [Example 210]
54 | – | < 1.5 | +++ (+++ = 91-100) | N[C@@H](Cc1ccc(OCc2cc(Cl)ccc2Cl)cc1)C(=O)N1CCN(Cc2cccc(Cl)c2Cl)CC1 [Example 212]
